Assay results published in patent US20070248599A1 (priority 2006, published 2007).

How the values were obtained:
N2a-APPsw cells [1] = test: Cellular Aβ production in N2a-APPsw cells (Aβ40 ELISA of conditioned medium); assay type: cell-based, mouse; settings: for Aβ production: each at 5 μg/mL, 24 h, N2a-APPsw cells (FIG. 5B legend)
N2a-APPsw cells [2] = test: as above; assay type: cell-based, mouse; settings: for Aβ production: recombinant ApoE forms at 10 μg/ml, N2a-APPsw cells (FIG. 5B)
Experimental: Quantification of β-Amyloid40, Neuro-2a cell stably overexpressing APPsw695 was used for detecting of β-Amyloid40. N2a-APPsw cells were grown in Dulbecco's Modified Eagle's medium (DMED) containing 10% fetal bovine serum, 100 U/mL penicillin, and 100 μg/mL streptomycin (GibcoBUR) with 80 μg/mL G418. Cells were cultured in 24-well plates one day before treatment. Transient transfections were done using FeGENE6 (Roche), fresh Optimum medium (Invitrogen) were supplied 5 h after transfection. Same concentration purified Apolipoprotein was added into the fresh medium. Conditioned medium was collected 24 h later. Aβ40 was quantified with sandwich ELISA by using Aβ40 ELISA Kit (Biosource). At least three times assays were done for each condition.
Cellular Aβ40 production. Neuroblastoma N2a-APPsw cells (from Dr. Riqiang Yan, Lerner Research Institute, Cleveland, Ohio) were cultured in 24-well plates in Dulbecco's Modified Eagle's medium (DMED) containing 10% fetal bovine serum, 100 U/mL penicillin, and 100 μg/mL streptomycin (GibcoBUR) with 80 μg/mL G418 one day before use. Transient transfections were done using FeGENE6 (Roche), fresh Optimum medium (Invitrogen) were supplied 5 h after transfection. Apolipoproteins were added in the fresh medium at 10 μg/mL. Conditioned medium was collected 24 h later. Aβ40 was determined in tripcates using Aβ40 ELISA Kit (Biosource). For studying the effect of PTB domain on Aβ production, N2a-APPsw cells were transfected with (0.4 μg/per well for 24 well plate) of PTB-containing vector before subjected to the above procedure.

[3] = tested on: N2a-APPsw cells transfected with ApoER2 and β-secretase; test: Internalization of cell surface proteins (biotinylation, Western blot); assay type: cell-based, mouse; settings: Western blot of conditioned medium (FIG. 6D)
[4] = tested on: N2a-APPsw cells transfected with ApoER2 and β-secretase; test: as above; assay type: cell-based, mouse
Experimental: Internalization of cell surface proteins. N2a-APPsw cells were transiently tranfected with ApoER2 and β-secretase with Lipfectamine 2000. […] Cells were then placed on ice, rinsed in cold PBS and incubated in PBS containing 1.5 mg/mL sulfo-NHS-LC-biotin (Pierce) for 20 min at 4° C. Cells were rinsed twice in PBS and lysed in 800 μl PBS containing 0.1% SDS, 1% NP40 and a complete protease inhibitor cocktail. Total protein concentration was determined by immunoblotting from an aliquot of 50 μl cell lysate. Biotinylated proteins were recovered with NeutrAvidin agarose (50 μl; Pierce), rinsed three times, eluted in 20 μl SDS-sample buffer at boiling temperature and used for Western-blot. Quantity of bands was determined by optical scanning instruments specified above. For the determination of internalized proteins, cells were prepared as above, rinsed in PBS and then incubated with cold 1.5 mg/mL cleavable biotin reagent in PBS (EZ-Link Sulfo-NHS-SS biotin, Pierce) for 20 min at 4° C. […] Cells were then lysed in 800 μl PBS containing 0.1% SDS, 1% NP40 and a complete protease inhibitor cocktail. After centrifugation, biotinylated proteins were retrieved by incubation with NeutrAvidin agarose (50 μl; Pierce). Isolated proteins were rinsed in buffer three times and boiled in 20 μl sample buffer for Western blots.

[5] = target: T1, human LRP (LDL receptor related protein) (human, UniProt Q07954 20-4544); test: co-IP from HEK293 lysate, Western blot
T1 construct: whole, on cells; Expressed in HEK293 cells in place of ApoER2 and assayed in lysate
T1 sequence (Q07954 20-4544): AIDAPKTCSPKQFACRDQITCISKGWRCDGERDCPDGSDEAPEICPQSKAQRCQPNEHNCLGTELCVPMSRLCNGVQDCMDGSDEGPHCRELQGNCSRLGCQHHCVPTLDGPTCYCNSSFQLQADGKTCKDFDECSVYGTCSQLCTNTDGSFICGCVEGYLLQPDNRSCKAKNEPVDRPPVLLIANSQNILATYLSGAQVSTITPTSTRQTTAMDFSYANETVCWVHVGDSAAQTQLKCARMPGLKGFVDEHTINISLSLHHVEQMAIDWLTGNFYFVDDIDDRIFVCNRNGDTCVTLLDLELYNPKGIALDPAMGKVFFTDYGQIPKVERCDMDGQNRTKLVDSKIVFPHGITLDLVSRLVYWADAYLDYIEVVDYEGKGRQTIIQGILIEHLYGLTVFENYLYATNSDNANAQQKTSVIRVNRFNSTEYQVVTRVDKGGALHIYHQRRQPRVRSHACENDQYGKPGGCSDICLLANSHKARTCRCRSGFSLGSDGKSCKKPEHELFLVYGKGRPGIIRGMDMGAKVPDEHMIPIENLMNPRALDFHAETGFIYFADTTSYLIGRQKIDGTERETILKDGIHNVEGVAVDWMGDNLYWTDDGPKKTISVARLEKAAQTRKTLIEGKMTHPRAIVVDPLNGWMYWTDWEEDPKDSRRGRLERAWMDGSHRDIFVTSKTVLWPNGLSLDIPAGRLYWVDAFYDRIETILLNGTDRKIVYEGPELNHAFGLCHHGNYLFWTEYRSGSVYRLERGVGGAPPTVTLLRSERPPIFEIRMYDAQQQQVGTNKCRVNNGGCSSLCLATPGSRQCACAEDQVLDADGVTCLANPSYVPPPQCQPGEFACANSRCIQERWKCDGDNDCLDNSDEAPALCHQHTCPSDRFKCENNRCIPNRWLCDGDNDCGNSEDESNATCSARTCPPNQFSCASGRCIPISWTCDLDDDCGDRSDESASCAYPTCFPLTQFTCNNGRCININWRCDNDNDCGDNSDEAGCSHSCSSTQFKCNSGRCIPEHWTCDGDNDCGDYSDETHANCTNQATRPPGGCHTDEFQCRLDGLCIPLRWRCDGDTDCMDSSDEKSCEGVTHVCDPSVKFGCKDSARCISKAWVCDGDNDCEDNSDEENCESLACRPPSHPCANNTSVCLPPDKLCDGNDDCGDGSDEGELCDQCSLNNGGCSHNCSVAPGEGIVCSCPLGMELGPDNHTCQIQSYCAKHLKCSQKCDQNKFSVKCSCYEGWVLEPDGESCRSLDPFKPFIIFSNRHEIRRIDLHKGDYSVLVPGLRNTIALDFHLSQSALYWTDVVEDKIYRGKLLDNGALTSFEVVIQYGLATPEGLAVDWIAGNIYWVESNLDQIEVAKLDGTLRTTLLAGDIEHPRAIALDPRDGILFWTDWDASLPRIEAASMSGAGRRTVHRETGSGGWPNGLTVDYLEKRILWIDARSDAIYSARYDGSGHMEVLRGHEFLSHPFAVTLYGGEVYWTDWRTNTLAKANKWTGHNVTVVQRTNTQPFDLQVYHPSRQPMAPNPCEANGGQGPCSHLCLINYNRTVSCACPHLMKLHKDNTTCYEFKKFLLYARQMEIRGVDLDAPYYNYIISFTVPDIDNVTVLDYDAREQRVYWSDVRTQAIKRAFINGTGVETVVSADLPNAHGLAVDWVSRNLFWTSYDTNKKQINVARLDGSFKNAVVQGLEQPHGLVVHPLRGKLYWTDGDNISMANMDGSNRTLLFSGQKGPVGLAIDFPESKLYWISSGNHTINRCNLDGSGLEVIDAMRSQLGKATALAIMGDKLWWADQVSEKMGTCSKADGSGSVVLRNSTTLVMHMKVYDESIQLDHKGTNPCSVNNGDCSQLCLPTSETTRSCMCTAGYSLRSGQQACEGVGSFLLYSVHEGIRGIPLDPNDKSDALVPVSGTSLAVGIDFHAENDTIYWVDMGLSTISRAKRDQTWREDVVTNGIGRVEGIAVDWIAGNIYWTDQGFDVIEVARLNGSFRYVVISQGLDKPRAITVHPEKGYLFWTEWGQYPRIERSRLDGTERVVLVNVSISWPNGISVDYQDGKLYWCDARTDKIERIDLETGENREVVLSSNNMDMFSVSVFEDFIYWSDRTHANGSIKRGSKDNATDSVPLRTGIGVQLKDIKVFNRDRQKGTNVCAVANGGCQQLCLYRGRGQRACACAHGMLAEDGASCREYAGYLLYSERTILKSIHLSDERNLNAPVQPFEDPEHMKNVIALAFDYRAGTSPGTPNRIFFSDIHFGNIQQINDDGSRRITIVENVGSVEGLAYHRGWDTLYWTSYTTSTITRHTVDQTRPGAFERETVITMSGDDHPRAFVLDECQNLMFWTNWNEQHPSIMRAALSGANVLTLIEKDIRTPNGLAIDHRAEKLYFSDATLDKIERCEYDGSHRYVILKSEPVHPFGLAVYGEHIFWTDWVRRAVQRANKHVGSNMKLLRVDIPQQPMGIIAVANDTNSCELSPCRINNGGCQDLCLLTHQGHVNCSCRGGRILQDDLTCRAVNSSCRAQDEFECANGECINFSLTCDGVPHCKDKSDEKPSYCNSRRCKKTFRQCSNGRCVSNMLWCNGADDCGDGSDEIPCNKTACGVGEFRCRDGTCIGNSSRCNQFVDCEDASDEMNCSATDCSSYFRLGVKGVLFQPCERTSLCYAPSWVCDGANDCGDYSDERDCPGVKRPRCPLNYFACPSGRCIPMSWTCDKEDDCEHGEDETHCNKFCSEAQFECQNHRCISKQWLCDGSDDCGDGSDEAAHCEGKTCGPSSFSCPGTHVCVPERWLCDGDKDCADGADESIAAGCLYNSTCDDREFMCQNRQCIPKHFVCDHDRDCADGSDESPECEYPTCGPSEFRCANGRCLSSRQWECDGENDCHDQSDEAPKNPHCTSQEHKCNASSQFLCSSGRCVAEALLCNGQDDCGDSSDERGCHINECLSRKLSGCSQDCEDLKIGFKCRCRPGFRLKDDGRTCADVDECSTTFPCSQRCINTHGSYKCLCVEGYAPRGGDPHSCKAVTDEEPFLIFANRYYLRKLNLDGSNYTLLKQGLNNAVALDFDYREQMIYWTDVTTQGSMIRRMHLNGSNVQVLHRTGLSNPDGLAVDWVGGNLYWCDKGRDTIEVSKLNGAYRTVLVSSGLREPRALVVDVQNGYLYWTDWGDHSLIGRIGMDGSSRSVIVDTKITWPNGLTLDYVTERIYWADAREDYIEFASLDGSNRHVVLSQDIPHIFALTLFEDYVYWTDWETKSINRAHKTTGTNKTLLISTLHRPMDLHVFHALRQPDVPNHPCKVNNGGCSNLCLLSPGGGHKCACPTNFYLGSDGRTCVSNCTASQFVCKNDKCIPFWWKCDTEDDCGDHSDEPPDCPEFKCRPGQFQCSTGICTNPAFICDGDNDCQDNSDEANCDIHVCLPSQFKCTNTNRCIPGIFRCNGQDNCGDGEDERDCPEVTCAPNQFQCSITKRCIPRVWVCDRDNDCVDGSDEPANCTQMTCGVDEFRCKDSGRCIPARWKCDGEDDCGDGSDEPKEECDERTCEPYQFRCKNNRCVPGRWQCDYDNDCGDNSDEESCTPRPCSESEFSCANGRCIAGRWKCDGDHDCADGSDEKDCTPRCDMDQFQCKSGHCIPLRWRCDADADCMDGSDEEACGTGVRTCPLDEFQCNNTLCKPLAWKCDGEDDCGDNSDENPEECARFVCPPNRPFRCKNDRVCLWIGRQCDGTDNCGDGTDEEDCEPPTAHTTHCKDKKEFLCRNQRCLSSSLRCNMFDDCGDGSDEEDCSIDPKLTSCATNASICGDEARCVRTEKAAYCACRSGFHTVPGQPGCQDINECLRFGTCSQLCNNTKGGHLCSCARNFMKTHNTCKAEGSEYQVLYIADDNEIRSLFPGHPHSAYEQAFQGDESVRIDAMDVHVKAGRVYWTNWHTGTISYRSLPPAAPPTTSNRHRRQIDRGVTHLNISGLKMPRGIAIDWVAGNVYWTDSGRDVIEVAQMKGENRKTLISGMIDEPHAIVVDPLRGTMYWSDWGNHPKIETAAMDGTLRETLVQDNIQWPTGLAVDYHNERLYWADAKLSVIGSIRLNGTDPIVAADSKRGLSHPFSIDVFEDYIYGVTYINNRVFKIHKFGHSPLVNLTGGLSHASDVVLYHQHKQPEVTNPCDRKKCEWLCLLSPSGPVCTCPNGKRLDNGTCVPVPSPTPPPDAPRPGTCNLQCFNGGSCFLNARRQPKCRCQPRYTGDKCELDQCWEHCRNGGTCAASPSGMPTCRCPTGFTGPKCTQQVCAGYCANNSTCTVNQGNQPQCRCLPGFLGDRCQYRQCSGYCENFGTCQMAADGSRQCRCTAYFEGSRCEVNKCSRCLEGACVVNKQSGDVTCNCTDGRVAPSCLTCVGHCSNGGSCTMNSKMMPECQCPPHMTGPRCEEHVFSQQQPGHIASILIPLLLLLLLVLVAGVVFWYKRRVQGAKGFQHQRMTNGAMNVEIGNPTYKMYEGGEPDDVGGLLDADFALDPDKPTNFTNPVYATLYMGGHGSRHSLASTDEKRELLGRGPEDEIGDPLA
Experimental: KPI is a Kunitz protease inhibitor domain. In ApoER2, the alternative spliced 59-residue insertion is shown in blue. […] Experimental conditions same as in FIG. 7A.
Co-immunoprecipitation and Western Blot Assays. […] 36 h after transfection, cells were harvested and lysed on ice in lysis buffer (PBS, pH 7.4 with 1% NP-40 and 1% Saponin with protease inhibitors cocktail (Roche)). Cell lysates were cleared by centrifugation and immunoprecipitated with indicated antibody for 4 h at 4° C. Immune complexes were isolated using protein G-agarose beads (Sigma) and subjected to SDS-PAGE and Western blotting using specific antibodies.

[6] = 10 μg/mL, internalization 15 min at 37° C. (FIG. 6B)

ApoE3: recombinant ApoE isoform, the reference sequence, from Alpha Diagnostic
Aβ production (N2a-APPsw cells [1]): increased Aβ production | Aβ production (N2a-APPsw cells [2]): increased Aβ production

ApoE: purified human apolipoprotein E, purchased from Biodesign / Alpha Diagnostic
APP ectodomain generated by ∝-secretase, s∝-APP [3]: reduction | Aβ40 increase in cells transfected with ApoER2 versus blank vectors (N2a-APPsw cells [1]; 5 μg/mL, N2a APPsw cells, p<0.05 (FIG. 4)): increase of Aβ40 at a greater extent | Aβ40 levels in medium (N2a-APPsw cells [1]; 5 μg/mL, blank vector transfected N2a APPsw cells vs control (FIG. 4)): increased over that in the control cells | Aβ production (N2a-APPsw cells [1]): increased Aβ production | total amounts of ApoER2, APP and β-secretase in the cell lysates ([4]; 10 μg/mL, 2 h): remained about the same | decrease of remaining cell-surface β-secretase ([4]; 10 μg/mL, 2 h, compared to controls (FIG. 6A)): ~7% | increase of intracellular APP [4, 6]: about 2.5 fold | increase of intracellular ApoER2 [4, 6]: small increases | increase of intracellular β-secretase [4, 6]: small increases | intracellular APP C-terminal fragment C99 ([4]; Western blot, over the control (FIG. 6C)): significantly increased | Aβ production in cells transfected with ApoER2 versus without (N2a-APPsw cells [2]; N2a-APPsw cells (FIG. 5D)): produced more Aβ

ApoE2: recombinant ApoE isoform with cysteine at residue 158, from Alpha Diagnostic
Aβ production (N2a-APPsw cells [1]): increased Aβ production | Aβ production (N2a-APPsw cells [2]): increased Aβ production

B1: human X11α (other)
chain: MNHLEGSAEVEVTDEAAGGEVNESVEADLEHPEVEEEQQQPPQQQHYVGRHQRGRALEDLRAQLGQEEEERGECLARSASTESGFHNHTDTAEGDVIAAARDGYDAERAQDPEDESAYAVQYRPEAEEYTEQAEAEHAEATHRRALPNHLHFHSLEHEEAMNAAYSGYVYTHRLFHRGEDEPYSEPYADYGGLQEHVYEEIGDAPELDARDGLRLYEQERDEAAAYRQEALGARLHHYDERSDGESDSPEKEAEFAPYPRMDSYEQEEDIDQIVAEVKQSMSSQSLDKAAEDMPEAEQDLERPPTPAGGRPDSPGLQAPAGQQRAVGPAGGGEAGQRYSKEKRDAISLAIKDIKEAIEEVKTRTIRSPYTPDEPKEPIWVMRQDISPTRDCDDQRPMDGDSPSPGSSSPLGAESSSTSLHPSDPVEASTNKESRKSLASFPTYVEVPGPCDPEDLIDGIIFAANYLGSTQLLSDKTPSKNVRMMQAQEAVSRIKMAQKLAKSRKKAPEGESQPMTEVDLFISTQRIKVLNADTQETMMDHPLRTISYIADIGNIVVLMARRRMPRSNSQENVEASHPSQDGKRQYKMICHVFESEDAQLIAQSIGQAFSVAYQEFLRANGINPEDLSQKEYSDLLNTQDMYNDDLIHFSKSENCKDVFIEKQKGEILGVVIVESGWGSILPTVIIANMMHGGPAEKSGKLNIGDQIMSINGTSLVGLPLSTCQSIIKGLKNQSRVKLNIVRCPPVTTVLIRRPDLRYQLGFSVQNGIICSLMRGGIAERGGVRVGHRIIEINGQSVVATPHEKIVHILSNAVGEIHMKTMPAAMYRLLTAQEQPVYI
notes: Adaptor protein expressed from a cDNA vector in HEK293 cells and assayed in lysate; the vector came from an outside laboratory; also called X11α/β
binding result [5]: no binding

B2: PTB domain of X11α (residue 457-751) expressed from pcDNA6 (other)
chain: DGIIFAANYLGSTQLLSDKTPSKNVRMMQAQEAVSRIKMAQKLAKSRKKAPEGESQPMTEVDLFISTQRIKVLNADTQETMMDHPLRTISYIADIGNIVVLMARRRMPRSNSQENVEASHPSQDGKRQYKMICHVFESEDAQLIAQSIGQAFSVAYQEFLRANGINPEDLSQKEYSDLLNTQDMYNDDLIHFSKSENCKDVFIEKQKGEILGVVIVESGWGSILPTVIIANMMHGGPAEKSGKLNIGDQIMSINGTSLVGLPLSTCQSIIKGLKNQSRVKLNIVRCPPVTTVLIR
notes: Expressed in cells from pcDNA6; also called separately expressed PTB domain of X11α
binding result [5]: no binding
